In patent publication US10450266B2, “Sulfonate compound, photoacid generator, and resin composition for photolithography” (SAN-APRO LIMITED, priority 2014, dated 2019):

Experiments:
Format in all cases: physicochemical
[1] = Molar extinction coefficient at i-line (365 nm), UV-visible spectrophotometer; details: 365 nm (i-line), 0.25 mmol/L in acetonitrile, 1 cm cell
Description: The synthesized photoacid generator was diluted to 0.25 mmol/L with acetonitrile, and using an ultraviolet-visible spectrophotometer (UV-2550 available from SHIMADZU CORPORATION), the absorbance in a range of 200 nm to 500 nm was measured with a cell having an optical path length (a cell length) of 1 cm. The molar extinction coefficient of i-line (365 nm) (ε365) was calculated from the following equation. ε365(L·mol^−1·cm^−1)=A365/(0.00025 mol/L×1 cm) [In the equation, A365 represents the absorbance at 365 nm.] <Resist Curing Properties>

[2] = Thermal decomposition temperature (TG/DTA, 2% weight reduction); details: point of 2% weight reduction, 10° C./minute, nitrogen atmosphere
Description: The synthesized photoacid generator was measured for the change in weight under a temperature increasing condition of 10° C./minute from 30° C. to 500° C. under a nitrogen atmosphere using a thermal gravimetric/differential thermal analyzer (TG/DTA 6200, available from Seiko Instruments Inc.), and a point where the weight was reduced by 2% was defined as the thermal decomposition temperature.

[3] = Solvent solubility; details: for Solvent solubility, PGMEA / Solvent solubility, Butyl acetate / Solvent solubility, Toluene: 25° C.
Description: In a test tube, 0.1 g of the synthesized photoacid generator was placed, and an organic solvent (butyl acetate, toluene or PGMEA) was added thereto in 0.2 g portions under a condition where the temperature was adjusted to 25° C. until the photoacid generator was completely dissolved. In this connection, in the case where the photoacid generator was not completely dissolved even when 20 g of the solvent was added, the photoacid generator was evaluated as one that was not dissolved.

| SMILES | Molar extinction coefficient [1] [L/mol/cm] | Thermal decomposition temperature [2] [°C] | Solvent solubility, PGMEA [3] [wt %] | Solvent solubility, Butyl acetate [3] [wt %] | Solvent solubility, Toluene [3] [wt %] | solubility to a solvent (in words) ([3]; summary of Table 1) |
| --- | --- | --- | --- | --- | --- | --- |
| CN(OS(=O)(=O)CC12CCC(CC1=O)C2(C)C)C(=O)c1ccc2ccccc2c1 (stereo not shown) [A-1] | 80 | 230 | 20 | 20 | 12 |  |
| COc1ccc2cc(C(=O)N(C)OS(=O)(=O)CC34CCC(CC3=O)C4(C)C)ccc2c1 (stereo not shown) [A-2] | 120 | 225 | 15 | 15 | 10 |  |
| COc1cc2c(OC)cccc2cc1C(=O)N(C)OS(=O)(=O)CC12CCC(CC1=O)C2(C)C (stereo not shown) [A-3] | 360 | 225 | 15 | 15 | 10 |  |
| COc1cc2c(OC)cccc2cc1C(=O)N(C)OS(C)(=O)=O [A-4] | 300 | 225 | 20 | 20 | 10 |  |
| COc1cc2c(OC)cccc2cc1C(=O)N(C)OS(=O)(=O)c1c(F)c(F)c(F)c(F)c1F [A-5] | 400 | 225 | 10 | 10 | 10 |  |
| CC(=O)c1ccc(Sc2ccc(C(=O)N(C)OS(=O)(=O)CC34CCC(CC3=O)C4(C)C)cc2)cc1 (stereo not shown) [A-6] | 450 | 210 | 15 | 15 | 10 |  |
| COc1ccc2cc(C(=O)N(C)OS(=O)(=O)CC34CCC(CC3=O)C4(C)C)c(=O)oc2c1 (stereo not shown) [A-7] | 6500 | 220 | 15 | 15 | 10 |  |
| CN(OS(=O)(=O)CC12CCC(CC1=O)C2(C)C)C(=O)c1c2ccccc2cc2ccccc12 (stereo not shown) [A-8] | 9000 | 240 | 5 | 5 | 10 |  |
| CC1(C)C2CCC1(CS(=O)(=O)OC1C(=O)c3cccc4cccc(c34)C1=O)C(=O)C2 (stereo not shown) [A′-1, reference compound] | 330 | 225 | 0.5 | 1 | 0.5 | insufficient |
